Measured values taken from patent US12252488B2 (Nimbus Saturn, Inc., priority 2021, dated 2025).

The compounds below were run against T1, HPK1 (Homo sapiens, UniProt Q92918) (assay: HPK1 biochemical enzyme assay (microfluidic mobility shift assay)). Settings: 1000 uM (1 mM) ATP; Caliper mobility shift; 1.5 nM HPK1; 30 min preincubation; read-out: HPK1 1000UMATP caliper IC50.
T1 construct: purchased Invitrogen
Procedure: Example 33. HPK1 Biochemical Enzyme Assay
HPK1 biochemical enzyme assay: HPK1 enzyme inhibition was measured using a microfluidic mobility shift assay. Reactions were performed in a 384-well plate, containing 1.5 nM HPK1 (Invitrogen), in assay buffer (Carna Biosciences; pH 7.4). Test compounds were titrated in ten point curves (top final assay concentration 3 μM), and preincubated with enzyme/substrate mix for 30 min prior to initiation of the reaction by addition of ATP (1 mM final concentration) and substrate (1 μM final concentration; Carna Biosciences) diluted in assay buffer supplemented by MgCl2 (final assay concentration of 5 mM). Following 60 min incubation at RT, the reaction was terminated by addition of 60 μl/well termination buffer (Carna Biosciences) and signal determination using a Caliper EZ Reader (Perkin Elmer, UK).
The compound numbers correspond to the compound numbers in Table 1. Compounds having an activity designated as “A” provided an IC50≤100 nM; compounds having an activity designated as “B” provided an IC50>100 nM and ≤1,000 nM; compounds having an activity designated as “C” provided an IC50>1,000 nM.

T1 sequence (Q92918 whole entry): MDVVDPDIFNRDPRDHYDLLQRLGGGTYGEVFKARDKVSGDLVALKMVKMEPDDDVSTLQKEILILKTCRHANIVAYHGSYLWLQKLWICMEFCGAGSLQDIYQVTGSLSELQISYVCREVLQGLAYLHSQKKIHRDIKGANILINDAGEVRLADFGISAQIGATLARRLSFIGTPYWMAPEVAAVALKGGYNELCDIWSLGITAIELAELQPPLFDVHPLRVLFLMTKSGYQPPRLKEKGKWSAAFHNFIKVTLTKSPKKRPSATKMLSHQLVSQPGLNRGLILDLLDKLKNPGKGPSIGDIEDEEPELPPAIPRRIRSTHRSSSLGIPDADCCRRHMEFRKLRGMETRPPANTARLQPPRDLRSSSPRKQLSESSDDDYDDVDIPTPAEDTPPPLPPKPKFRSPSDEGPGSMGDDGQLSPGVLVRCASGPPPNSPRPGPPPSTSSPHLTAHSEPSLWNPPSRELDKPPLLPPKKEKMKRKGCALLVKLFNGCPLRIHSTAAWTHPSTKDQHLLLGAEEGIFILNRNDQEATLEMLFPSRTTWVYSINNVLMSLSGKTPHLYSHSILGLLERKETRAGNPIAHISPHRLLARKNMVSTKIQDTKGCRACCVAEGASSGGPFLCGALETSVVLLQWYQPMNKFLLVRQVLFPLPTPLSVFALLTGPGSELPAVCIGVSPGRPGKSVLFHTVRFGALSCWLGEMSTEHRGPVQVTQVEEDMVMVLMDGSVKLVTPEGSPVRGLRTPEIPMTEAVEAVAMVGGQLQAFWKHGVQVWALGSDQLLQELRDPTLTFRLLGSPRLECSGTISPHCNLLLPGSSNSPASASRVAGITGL

| SMILES | IC50 |
| --- | --- |
| CC(C)Oc1ccc(F)c(-c2cc(Nc3ccc(N4CCC(O)CC4)cn3)c3c(=O)[nH]ccc3n2)c1 [I-67, 2-(2-fluoro-5-isopropoxy-phenyl)-4-[[5-(4-hydroxy-1-piperidyl)-2-pyridyl]amino]-6H-1,6-naphthyridin-5-one] | 100 to 1000 nM |
| Cc1cccc(-c2cc(Nc3ccc(N4CCC(O)CC4)cn3)c3c(=O)[nH]ccc3n2)c1F [I-68, 2-(2-fluoro-3-methyl-phenyl)-4-[[5-(4-hydroxy-1-piperidyl)-2-pyridyl]amino]-6H-1,6-naphthyridin-5-one] | 100 to 1000 nM |
| CC(C)(O)c1ccc(-c2cc(Nc3ccc(N4CCC(O)CC4)cn3)c3c(=O)[nH]ccc3n2)c(F)c1 [I-69, 2-[2-fluoro-4-(1-hydroxy-1-methyl-ethyl)phenyl]-4-[[5-(4-hydroxy-1-piperidyl)-2-pyridyl]amino]-6H-1,6-naphthyridin-5-one] | 100 to 1000 nM |
| CNC(=O)c1ccc(-c2cc(Nc3ccc(N4CCC(O)CC4)cn3)c3c(=O)[nH]ccc3n2)c(F)c1 [I-70, 3-fluoro-4-[4-[[5-(4-hydroxy-1-piperidyl)-2-pyridyl]amino]-5-oxo-6H-1,6-naphthyridin-2-yl]-N-methyl-benzamide] | 100 to 1000 nM |
| O=C(c1ccc(-c2cc(Nc3ccc(N4CCC(O)CC4)cn3)c3c(=O)[nH]ccc3n2)c(F)c1)N1CCCCC1 [I-71, 2-[2-fluoro-4-(piperidine-1-carbonyl)phenyl]-4-[[5-(4-hydroxy-1-piperidyl)-2-pyridyl]amino]-6H-1,6-naphthyridin 5-one] | 100 to 1000 nM |
| NC(=O)c1ccc(-c2cc(Nc3ccc(N4CCC(O)CC4)cn3)c3c(=O)[nH]ccc3n2)c(F)c1 [I-72, 3-fluoro-4-[4-[[5-(4-hydroxy-1-piperidyl)-2-pyridyl]amino]-5-oxo-6H-1,6-naphthyridin-2-yl] benzamide] | 100 to 1000 nM |
| CN(C)Cc1ccc(-c2cc(Nc3ccc(N4CCC(O)CC4)cn3)c3c(=O)[nH]ccc3n2)c(F)c1 [I-74, 2-[4-[(dimethyl-amino)methyl]-2-fluoro-phenyl]-4-[[5-(4-hydroxy-1-piperidyl)-2-pyridyl]amino]-6H-1,6-naphthyridin-5-one] | ≤ 100 nM |
| CN1CCC(c2cc(Nc3ccc(N4CCC(O)CC4)cn3)c3c(=O)[nH]ccc3n2)CC1 [I-75, 4-[[5-(4-hydroxy-1-piperidyl)-2-pyridyl]amino]-2-(1-methyl-4-piperidyl)-6H-1,6-naphthyridin-5-one] | ≤ 100 nM |
| CC(=O)Nc1ccc(F)c(-c2cc(Nc3ccc(N4CCC(O)CC4)cn3)c3c(=O)[nH]ccc3n2)c1 [I-76, N-[4-fluoro-3-[4-[[5-(4-hydroxy-1-piperidyl)-2-pyridyl]amino]-5-oxo-6H-1,6-naphthyridin-2-yl]phenyl] acetamide] | 100 to 1000 nM |
| CC(O)(c1cc(Nc2ccc(N3CCC(O)CC3)cn2)c2c(=O)[nH]ccc2n1)C(F)(F)F (stereo not shown) [I-77, 4-[[5-(4-hydroxy-1-piperidyl)-2-pyridyl]amino]-2-(2,2,2-trifluoro-1-hydroxy-1-methyl-ethyl)-6H-1,6-naphthyridin-5-one] | 100 to 1000 nM |
| CC(=O)NC1CCCN(c2cc(Nc3ccc(N4CCC(O)CC4)cn3)c3c(=O)[nH]ccc3n2)C1 (stereo not shown) [I-78, N-[1-[4-[[5-(4-hydroxy-1-piperidyl)-2-pyridyl]amino]-5-oxo-6H-1,6-naphthyridin-2-yl]-3-piperidyl] acetamide] | > 1000 nM |
| CN(C)C(=O)c1ccc(F)c(-c2cc(Nc3ccc(N4CCC(O)CC4)cn3)c3c(=O)[nH]ccc3n2)c1 [I-79, 4-fluoro-3-[4-[[5-(4-hydroxy-1-piperidyl)-2-pyridyl]amino]-5-oxo-6H-1,6-naphthyridin-2-yl]-N,N-dimethyl-benzamide] | 100 to 1000 nM |
| O=C(c1ccc(F)c(-c2cc(Nc3ccc(N4CCC(O)CC4)cn3)c3c(=O)[nH]ccc3n2)c1)N1CCOCC1 [I-80, 2-[2-fluoro-5-(morpholine-4-carbonyl)phenyl]-4-[[5-(4-hydroxy-1-piperidyl)-2-pyridyl]amino]-6H-1,6-naphthyridin-5-one] | 100 to 1000 nM |
